Test results published in patent US20240188566A1, “Biocidal Composition and Method” (ARXADA, LLC, priority 2021, published 2024).

Key:
[1] = test system: Pseudomonas aeruginosa, Escherichia coli, Enterobacter cloacae, Acinetobacter calcoaceticus; test: In-can challenge test, modified ASTM D2574-97 (Table 1); assay type: cell-based
Method: (§1) Various formulations were made in accordance with the present disclosure and tested for performance. In one challenge test, the efficacy of dicyandiamide as an adjuvant for BIT was evaluated using modified ASTM D2574-97 “Standard Test Method for Resistance of Emulsion Paints in the Container to Attack by Microorganisms” with higher inoculation volumes and frequency. A standard consortium of four (4) bacterial populations: Pseudomonas aeruginosa, Escherichia coli, Enterobacter cloacae, Acinetobacter calcoaceticus was used to inoculate three (3) different samples at ten percent (10%), five percent (5%), or two and a half percent (2.5%) of the sample size. At twenty-four (24) hours and seventy-two (72) hours after each inoculation, a portion of each sample was streaked on tryptic soy agar. A dilution plate count was performed at the last seventy-two (72) hour time point.
(§2) Example data provided in Tables 1, 2 and 3 should be understood as indicating the degree of microbial growth observed for a given data point unless otherwise indicated. In particular, each plate is ranked from 0 through 5c (i.e., one of 0, 1, 2, 3, 4, 5, or 5c) according to the degree of observed microbial growth, where: a “0” ranking indicates no growth; a “1” ranking indicates one (1) through five (5) observed colony forming unit (cfu), i.e., the plate was very lightly contaminated; a “2” ranking indicates six (6) through fifteen (15) cfu, i.e., the plate was lightly contaminated; a “3” ranking indicates sixteen (16) through thirty (30) cfu, i.e., the plate was moderately contaminated; a “4” ranking indicates thirty-one (31) through forty-five (45) cfu, i.e., the plate was heavily contaminated; a “5” ranking indicates greater than (45) cfu, i.e., the plate was severely contaminated; and a “5c” ranking indicates confluent growth, i.e., the plate was very severely contaminated. Thus, for instance, Table 1, Challenge 1 at 24 h for BIT 50 ppm has a value of 5 indicating greater than forty-five (45) cfu were observed. As another example for illustration, Table 1, Challenge 1 at 24 h for dicyandiamide 5,000 ppm+BIT 50 ppm has a value of 1 indicating one (1) through five (5) cfu was observed.

[2] = test system: Pseudomonas aeruginosa, Escherichia coli, Enterobacter cloacae, Acinetobacter calcoaceticus; test: Repeat in-can challenge test, same conditions (Table 2); assay type: cell-based
Method: as §1, §2

[3] = test system: bacteria, fungi, and yeast; details: background statement; cited from earlier work
[4] = neutral pH; cited from earlier work
[5] = BIT 50 ppm, Challenge 1 (10%), 24 h
[6] = BIT 50 ppm, Challenge 1 (10%), 72 h
[7] = BIT 50 ppm, Challenge 2 (5%), 72 h
[8] = BIT 50 ppm, Challenge 3 (2.5%), 24 h
[9] = BIT 50 ppm, Challenge 3 (2.5%), 72 h
[10] = BIT 100 ppm, Challenge 1 (10%), 24 h
[11] = BIT 100 ppm, Challenge 1 (10%), 72 h
[12] = BIT 100 ppm, Challenge 2 (5%), 72 h
[13] = BIT 100 ppm, Challenge 3 (2.5%), 24 h
[14] = BIT 100 ppm, Challenge 3 (2.5%), 72 h

## O=c1[nH]sc2ccccc12 [BIT, 1,2-benzisothiazolin-3-one]
[1]; [5]
  degree of microbial growth (plate ranking): 5 (a “5” ranking indicates greater than (45) cfu, i.e., the plate was severely contaminated)
[1]; [6]
  degree of microbial growth (plate ranking): 2 (a “2” ranking indicates six (6) through fifteen (15) cfu, i.e., the plate was lightly contaminated)
[1]; [7]
  degree of microbial growth (plate ranking): 5 (a “5” ranking indicates greater than (45) cfu, i.e., the plate was severely contaminated)
[1]; [8]
  degree of microbial growth (plate ranking): 5c
[1]; [9]
  dilution plate count: 7.8 × 10^6
[1]; [10]
  degree of microbial growth (plate ranking): 5 (a “5” ranking indicates greater than (45) cfu, i.e., the plate was severely contaminated)
[1]; [11]
  degree of microbial growth (plate ranking): 0
[1]; [12]
  degree of microbial growth (plate ranking): 0
[1]; [13]
  degree of microbial growth (plate ranking): 5 (a “5” ranking indicates greater than (45) cfu, i.e., the plate was severely contaminated)
[1]; [14]
  dilution plate count: 5.0 × 10^1
[2]; BIT 35 ppm, Challenge 1 (10%), 24 h
  degree of microbial growth (plate ranking): 5c
[2]; BIT 35 ppm, Challenge 1 (10%), 72 h
  degree of microbial growth (plate ranking): 5c
[2]; BIT 35 ppm, Challenge 2 (5%), 72 h
  degree of microbial growth (plate ranking): 5c
[2]; BIT 35 ppm, Challenge 3 (2.5%), 24 h
  degree of microbial growth (plate ranking): 5c
[2]; BIT 35 ppm, Challenge 3 (2.5%), 72 h
  dilution plate count: 3.0 × 10^6
[2]; [5]
  degree of microbial growth (plate ranking): 5c
[2]; [6]
  degree of microbial growth (plate ranking): 5c
[2]; [7]
  degree of microbial growth (plate ranking): 5c
[2]; [8]
  degree of microbial growth (plate ranking): 5c
[2]; [9]
  dilution plate count: 6.6 × 10^6
[2]; BIT 65 ppm, Challenge 1 (10%), 24 h
  degree of microbial growth (plate ranking): 5c
[2]; BIT 65 ppm, Challenge 1 (10%), 72 h
  degree of microbial growth (plate ranking): 3 (a “3” ranking indicates sixteen (16) through thirty (30) cfu, i.e., the plate was moderately contaminated)
[2]; BIT 65 ppm, Challenge 2 (5%), 72 h
  degree of microbial growth (plate ranking): 5c
[2]; BIT 65 ppm, Challenge 3 (2.5%), 24 h
  degree of microbial growth (plate ranking): 5c
[2]; BIT 65 ppm, Challenge 3 (2.5%), 72 h
  dilution plate count: 1.0 × 10^6
[2]; BIT 75 ppm, Challenge 1 (10%), 24 h
  degree of microbial growth (plate ranking): 5c
[2]; BIT 75 ppm, Challenge 1 (10%), 72 h
  degree of microbial growth (plate ranking): 0
[2]; BIT 75 ppm, Challenge 2 (5%), 72 h
  degree of microbial growth (plate ranking): 5 (a “5” ranking indicates greater than (45) cfu, i.e., the plate was severely contaminated)
[2]; BIT 75 ppm, Challenge 3 (2.5%), 24 h
  degree of microbial growth (plate ranking): 5c
[2]; BIT 75 ppm, Challenge 3 (2.5%), 72 h
  dilution plate count: 2.8 × 10^5
[2]; [10]
  degree of microbial growth (plate ranking): 5c
[2]; [11]
  degree of microbial growth (plate ranking): 0
[2]; [12]
  degree of microbial growth (plate ranking): 5 (a “5” ranking indicates greater than (45) cfu, i.e., the plate was severely contaminated)
[2]; [13]
  degree of microbial growth (plate ranking): 5c
[2]; [14]
  dilution plate count: 1.8 × 10^7
[3]
  amount required for a reliable and quick biocidal activity: ≤ 500 ppm

## Zinc pyrithione [ZPT]
[4]
  solubility in water: 8 ppm
